Key:
[1] = system: erythema produced by an ultra-violet light source on guinea pig skin; assay: UV-light-induced erythema blocking on guinea pig skin (anti-inflammatory activity); format: in vivo, albino guinea pigs; conditions: Cavia porcellus; oral, suspension in 1 percent aqueous sodium carboxymethylcellulose; groups of 4 guinea pigs; obtained directly or by extrapolation; read-out: ED50 for erythema blocking (dose producing 50 percent inhibition of the erythemic response)
Method: The compounds of this invention are anti-inflammatory and anti-thrombotic agents. […] Int. Pharmacodyn, 116, 261 (1958). In this procedure, albino guinea pigs weighing 225-300 gms. are shaved on the back and chemically depilated 18 to 20 hours before initiation of the test procedures. Animals in groups of 4 are given predetermined dosages of the drug under test with one group being maintained as a control group. The drug is administered by the oral route as a suspension in 1 percent aqueous sodium carboxymethylcellulose. The control animals receive only the suspending medium. After having being given the drug or suspension medium only, each group of animals is exposed to a high-intensity ultra-violet light for a predetermined period of time, the ultra-violet light being placed in contact with the depilated skin area on the animals' back. A gummed paper reinforcement is affixed to the lamp lens to provide an unexposed area of contrast for grading the light-produced erythema.
Beginning one hour after exposure and thereafter an half-hour intervals for another 1.5 hours, a trained observer grades erythema using an arbitrary scoring system based upon the degree of contrast and redness formed. […] The following scoring system is used:
Total scores from each treatment group of four guinea pigs are compared to the control treatment, and the percent inhibition calculated as follows: [formula] […]

[2] = system: collagen-induced platelet aggregation; assay: collagen-induced platelet aggregation (P.A.) inhibition after oral dosing; format: in vivo, guinea pigs; conditions: 2 doses at time zero and 2 hours later, blood removed 60 minutes after last dose, 0.05 ml. of 1:45 collagen dilution
Method: Certain of the compounds of this invention are also platelet aggregation inhibitors and the results of testing for this activity are also included in Table I. The platelet aggregation test used involves the effect of a drug upon collagen-induced platelet aggregation using the method of Hermann et al., Proc. Soc. Exp. Biol. Med. 136, 548 (1972). According to this procedure, 300-400 g. guinea pigs are used and the compound is administered by the oral route in 2 doses, at time zero and again 2 hours later, at a series of graded dose levels to groups of 4 pigs each. One group is maintained as a control group. Blood is removed by heart puncture 60 minutes after the last dose, and a platelet-rich plasma prepared therefrom. A stock collagen solution is prepared by solubilizing bovine Achilles tendon with acetic acid. The stock solution contains 0.25 percent collagen, has a pH of 2.8 and is kept under refrigeration. […] (Activity was determined by computor printout with significance at the 95 percent confidence level being attained at about the 50 percent inhibition level). In Table 1, column 1 gives the name of the compound, column 2, the ED50 for erythema blocking calculated as set forth above and column 3, the lowest active dose in the platelet aggregation test.

Structure (SMILES) | ED50 [1] | P.A., lowest active dose in the platelet aggregation test (active = about 50% inhibition of collagen-induced aggregation) [2]
Nc1cccc2c1NC(=O)C2c1ccccc1 (stereo not shown) [2-oxo-3-phenyl-7-aminoindoline] | 10.2 mg/kg | 100 mg/kg × 2
CC(=O)Nc1cccc2c1NC(=O)C2c1ccccc1 (stereo not shown) [N-(2-oxo-3-phenyl-7-indolinyl)-acetamide, N-(2-oxo-3-phenyl-7-indolinyl)acetamide] | 20 mg/kg | 3.12 mg/kg × 2

From patent US4110465A, “7-Amino and 7-alkanoylamino 2-oxo-3-phenylindolines” (Eli Lilly and Company, priority 1977, dated 1978)
